Assay results reported in US5891877A, “Pharmaceutical compounds” (Xenova Limited, priority 1996, dated 1999).
Structures can show the parent of a compound that is named as a salt.

Molecular target: PAI-1 (Homo sapiens, UniProt P05121)
Test: PAI-1 inhibition in the S2251 chromogenic substrate assay (PAI functional assay)
Type: biochemical
Conditions: Table 1, second part; for inhibition at 20 µM / inhibition at 50 µM / inhibition at 100 µM: read-out: INHIBITION OF PAI-1 (degree of inhibition); for IC50: PAI-1, S2251 assay; for INHIBITION OF PAI-1 (degree of inhibition): unit assumed
How it was run: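 Compound preincubated with PAI-1, then added to a tPA/plasminogen system; residual tPA activity converts plasminogen to plasmin.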

PAI-1, sequence (P05121 24-402): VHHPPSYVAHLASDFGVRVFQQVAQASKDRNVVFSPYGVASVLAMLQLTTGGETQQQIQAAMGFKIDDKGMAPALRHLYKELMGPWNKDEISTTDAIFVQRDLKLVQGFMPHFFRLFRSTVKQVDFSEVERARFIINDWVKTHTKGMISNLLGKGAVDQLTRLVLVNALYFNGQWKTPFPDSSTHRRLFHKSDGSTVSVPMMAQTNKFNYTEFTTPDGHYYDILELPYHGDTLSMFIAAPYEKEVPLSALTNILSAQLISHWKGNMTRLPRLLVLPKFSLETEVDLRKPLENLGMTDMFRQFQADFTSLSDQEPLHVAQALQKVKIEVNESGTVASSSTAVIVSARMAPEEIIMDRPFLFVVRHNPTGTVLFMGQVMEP

SMILES | inhibition at 20 µM (20 μM) | IC50 | INHIBITION OF PAI-1 (degree of inhibition) (20 μM) | other results
CN(C)CCOc1ccc(/C=c2\[nH]c(=O)/c(=C/c3ccsc3)[nH]c2=O)cc1 [Compound 5071, (3Z,6Z)-6-(4-(2-Dimethylaminoethoxy)benzylidene)-3-(3-thenylidene)-2,5-piperazinedione] | 73% | – | – | inhibition at 50 µM: 82%; inhibition at 100 µM (100 μM): 80%
CSc1ccc(/C=c2\[nH]c(=O)/c(=C/c3ccc(OCCN(C)C)cc3)[nH]c2=O)s1 [Compound 5072, (3Z,6Z)-6-(4-(2-Dimethylaminoethoxy)benzylidene)-3-(5-methylthio-2-thenylidene)-2,5-piperazinedione] | 61% | – | – | inhibition at 50 µM: 61%; inhibition at 100 µM (100 μM): 60%
CN(C)CCSCc1ccc(/C=c2\[nH]c(=O)/c(=C/c3ccoc3)[nH]c2=O)cc1 [Compound 5073, (3Z,6Z)-6-(4-(2-Dimethylaminoethylthiomethyl)benzylidene)-3-(3-furylmethylene)-2,5-piperazinedione] | 14% | – | – | inhibition at 50 µM: 70%; inhibition at 100 µM (100 μM): 63%
CN(C)CC(=O)NCc1ccc(/C=c2\[nH]c(=O)/c(=C/c3ccsc3)[nH]c2=O)cc1 [Compound 5074, (3Z,6Z)-6-(4-Dimethylaminoacetamidomethylbenzylidene)-3-(3-thenylidene)-2,5-piperazinedione] | 26% | – | – | inhibition at 50 µM: 57%; inhibition at 100 µM (100 μM): 47%
O=c1[nH]/c(=C\c2cc(Cl)sc2Cl)c(=O)[nH]/c1=C\c1ccccc1 [Compound 5075, (3Z,6Z)-3-(2,5-Dichloro-3-thenylidene)-6-benzylidene-2,5-piperazinedione] | 52% | – | – | inhibition at 50 µM: 88%; inhibition at 100 µM (100 μM): 88%
CN(C)CCOCc1ccc(/C=c2\[nH]c(=O)/c(=C/c3ccoc3)[nH]c2=O)cc1 [Compound 5077, (3Z,6Z)-6-(4-(2-Dimethylaminoethoxymethyl)benzylidene)-3-(3-furylmethylene)-2,5-piperazinedione] | 42% | – | – | inhibition at 50 µM: 46%; inhibition at 100 µM (100 μM): 34%
CN(C)CCSCc1ccc(/C=c2\[nH]c(=O)/c(=C/c3ccsc3)[nH]c2=O)cc1 [Compound 5078, (3Z,6Z)-6-(4-(2-Dimethylaminoethylthiomethyl)benzylidene)-3-(3-thenylidene)-2,5-piperazinedione] | 11% | – | – | inhibition at 50 µM: 67%; inhibition at 100 µM (100 μM): 60%
CN(C)CC(=O)NCc1ccc(/C=c2\[nH]c(=O)/c(=C/c3ccccc3Br)[nH]c2=O)cc1 [Compound 5079, (3Z,6Z)-3-(2-Bromobenzylidene)-6-(4-dimethylaminoacetamidomethylbenzylidene)-2,5-piperazinedione] | 14% | – | – | inhibition at 50 µM: 58%; inhibition at 100 µM (100 μM): 44%
CN(C)CC(=O)NCc1ccc(/C=c2\[nH]c(=O)/c(=C/c3ccoc3)[nH]c2=O)cc1 [Compound 5081, (3Z,6Z)-6-(4-Dimethylaminoacetamidomethylbenzylidene)-3-(3-furylmethylene)-2,5-piperazinedione] | 50% | – | – | inhibition at 50 µM: 34%; inhibition at 100 µM (100 μM): 25%
CN(C)CCCOc1ccc(/C=c2\[nH]c(=O)/c(=C/c3ccc4ccccc4c3)[nH]c2=O)cc1 [Compound 5188, (3Z,6Z)-6-(4-(3-Dimethylaminopropoxy)benzylidene)-3-(2-Naphthylmethylene)-2,5-piperazinedione] | 94% | 3.5 µM | – | inhibition at 100 µM (100 μM): 90%
CN(C)CCCOc1ccc(/C=c2\[nH]c(=O)/c(=C/c3cccc4ccccc34)[nH]c2=O)cc1 [Compound 5200, (3Z,6Z)-6-(4-(3-Dimethylaminopropoxy)benzylidene)-3-(1-Naphthylmethylene)-2,5-piperazinedione] | – | – | 10% | INHIBITION OF PAI-1 (degree of inhibition) (100 μM): 10%
CN(C)CCCOc1ccc(/C=c2\[nH]c(=O)/c(=C/c3cccc4ccccc34)[nH]c2=O)cc1 [Compound 5205] | – | 100 µM | 33% | INHIBITION OF PAI-1 (degree of inhibition) (100 μM): 56%
CN(C)CCCOc1ccc(/C=c2\[nH]c(=O)/c(=C/c3ccc4ccccc4c3)[nH]c2=O)cc1 [Compound 5206] | – | 3 µM | 78% | INHIBITION OF PAI-1 (degree of inhibition) (100 μM): 72%
CN(C)CCN(C)c1ccc(/C=c2\[nH]c(=O)/c(=C/c3ccccc3)[nH]c2=O)s1 [Compound 5299, (3Z,6Z)-6-Benzylidene-3-(5-(2-dimethylaminoethyl)methylamino-2-thienylmethylene)-2,5-piperazinedione] | – | 7 µM | – | –
CN(C)CCOc1ccc(/C=c2\[nH]c(=O)/c(=C/c3ccccc3)[nH]c2=O)s1 [Compound 5324, (3Z,6Z)-6-Benzylidene-3-(5-(2-dimethylaminoethoxy)-2-thienylmethylene)-2,5-piperazinedione] | – | 9 µM | – | –
CN(C)CCOc1csc(/C=c2\[nH]c(=O)/c(=C/c3ccccc3)[nH]c2=O)c1 [Compound 5327, (3Z,6Z)-6-Benzylidene-3-(4-(2-dimethylaminoethoxy)-2-thienylmethylene)-2,5-piperazinedione] | 17% | – | – | –
CN(C)CCc1ccc(/C=c2\[nH]c(=O)/c(=C/c3ccccc3)[nH]c2=O)s1 [Compound 5335, (3Z,6Z)-6-Benzylidene-3-(5-(2-dimethylaminoethyl)-2-thienylmethylene)-2,5-piperazinedione] | – | 22 µM | – | –

SMILES | inhibition at 20 µM (20 μM) | IC50 | INHIBITION OF PAI-1 (degree of inhibition) (20 μM) | other results
CN(C)CCCOc1ccc(/C=c2\[nH]c(=O)/c(=C/c3ccc(C(=O)N4CCc5ccccc5C4)cc3)[nH]c2=O)cc1 [Compound 5367] | – | 18 µM | – | –
O=C(NCCCCN1CCc2ccccc2C1)c1ccc(/C=c2\[nH]c(=O)/c(=C/c3ccccc3)[nH]c2=O)cc1 [Compound 5371, N-(4-(1,2,3,4-Tetrahydro-2-isoquinolyl)butyl)-4-((3Z,6Z)-6-benzylidene-2,5-dioxo-3-piperazinylidene)methylbenzamide] | – | 12 µM | – | –
CN(C)CCCOc1ccc(/C=c2\[nH]c(=O)/c(=C/c3ccc(C(=O)N4CCc5ccccc5C4)cc3)[nH]c2=O)cc1 [Compound 5376] | – | 12 µM | – | –
O=C(NCCCCN1CCc2ccccc2C1)c1ccc(/C=c2\[nH]c(=O)/c(=C/c3ccccc3)[nH]c2=O)cc1 [Compound 5379] | 65% | 15 µM | – | –
CN(C)CCCOc1ccc(/C=c2\[nH]c(=O)/c(=C/c3ccc(C(=O)NCCN4CCc5ccccc5C4)cc3)[nH]c2=O)cc1 [Compound 5386, N-(2-(1,2,3,4-Tetrahydro-2-isoquinolyl)ethyl)-4-((3Z,6Z)-6-(4-(3-dimethylaminopropoxy)benzylidene)-2,5-dioxo-3-piperazinylidene)methylbenzamide] | – | 18 µM | – | –
CN(C)CCOCCOc1ccc(/C=c2\[nH]c(=O)/c(=C/c3ccccc3)[nH]c2=O)s1 [Compound 5388, (3Z,6Z)-6-Benzylidene-3-(5-(2-(2-dimethylaminoethoxy)ethoxy)-2-thienylmethylene)-2,5-piperazinedione] | 58% | 9 µM | – | –
CN(C)CCOCCOc1ccc(/C=c2\[nH]c(=O)/c(=C/c3ccccc3)[nH]c2=O)s1 [Compound 5388.HCl] | – | 12 µM | 60% | –
CN(C)CCCCCCOc1ccc(/C=c2\[nH]c(=O)/c(=C/c3ccccc3)[nH]c2=O)s1 [Compound 5389, (3Z,6Z)-6-Benzylidene-3-(5-(6-dimethylaminohexyloxy)-2-thienylmethylene)-2,5-piperazinedione] | 55% | 2.5 µM | – | –
CN(C)CCCCCCOc1ccc(/C=c2\[nH]c(=O)/c(=C/c3ccccc3)[nH]c2=O)s1 [Compound 5389.HCl] | – | – | 57% | –
O=C(NCCN1CCc2ccccc2C1)c1ccc(/C=c2\[nH]c(=O)/c(=C/c3ccccc3)[nH]c2=O)cc1 [Compound 5391, N-(2-(1,2,3,4-Tetrahydro-2-isoquinolyl)ethyl)-4-((3Z,6Z)-6-benzylidene-2,5-dioxo-3-piperazinylidene)methylbenzamide] | – | 6.5 µM | 64% | –
O=C(NCCN1CCc2ccccc2C1)c1ccc(/C=c2\[nH]c(=O)/c(=C/c3ccccc3)[nH]c2=O)cc1 [Compound 5391.HCl] | – | 3.5 µM | 100% | –
COc1cc2c(cc1OC)CN(CCc1ccc(NC(=O)c3ccc(/C=c4\[nH]c(=O)/c(=C/c5ccccc5)[nH]c4=O)cc3)cc1)CC2 [Compound 5393.HCl] | – | 20 µM | 58% | –
COc1cc2c(cc1OC)CN(CCc1ccc(NC(=O)c3ccc(/C=c4\[nH]c(=O)/c(=C/c5ccccc5)[nH]c4=O)cc3)cc1)CC2 [Compound 5393] | 76% | 14 µM | – | –
O=C(NCCCN1CCc2ccccc2C1)c1ccc(/C=c2\[nH]c(=O)/c(=C/c3ccccc3)[nH]c2=O)cc1 [Compound 5394, N-(3-(1,2,3,4-Tetrahydro-2-isoquinolyl)propyl)-4-((3Z,6Z)-6-benzylidene-2,5-dioxo-3-piperazinylidene)methylbenzamide] | 59% | 16 µM | – | –
O=C(NCCCN1CCc2ccccc2C1)c1ccc(/C=c2\[nH]c(=O)/c(=C/c3ccccc3)[nH]c2=O)cc1 [Compound 5394.HCl] | – | 17 µM | 62% | –
CN(C)CCCOc1ccc(/C=c2\[nH]c(=O)/c(=C/c3ccc(C(=O)NCCCCN4CCc5ccccc5C4)cc3)[nH]c2=O)cc1 [Compound 5397, N-(4-(1,2,3,4-Tetrahydro-2-isoquinolyl)butyl)-4-((3Z,6Z)-6-(4-(3-dimethylaminopropoxy)benzylidene)-2,5-dioxo-3-piperazinylidene)methylbenzamide] | – | – | 42% | –
CN(C)CCCOc1ccc(/C=c2\[nH]c(=O)/c(=C/c3ccc(C(=O)NCCCCN4CCc5ccccc5C4)cc3)[nH]c2=O)cc1 [Compound 5397.HCl] | – | – | 21% | –
